Data on 2 compounds can be found in patent US7211566B2 (Universite De Sherbrooke, priority 2003, dated 2007).

Square brackets hold non-standard residues; d marks the D form. Peptide text beside a SMILES is read from it. Oic = O=C(O)[C@@H]1C[C@@H]2CCCC[C@@H]2N1; d2Nal = N[C@H](Cc1ccc2ccccc2c1)C(=O)O; αMeF = C[C@](N)(Cc1ccccc1)C(=O)O; Orn = NCCC[C@H](N)C(=O)O

For one assay, the target named is T1, BKB1 receptor (Homo sapiens, UniProt P46663).
T1 sequence (P46663 1-353): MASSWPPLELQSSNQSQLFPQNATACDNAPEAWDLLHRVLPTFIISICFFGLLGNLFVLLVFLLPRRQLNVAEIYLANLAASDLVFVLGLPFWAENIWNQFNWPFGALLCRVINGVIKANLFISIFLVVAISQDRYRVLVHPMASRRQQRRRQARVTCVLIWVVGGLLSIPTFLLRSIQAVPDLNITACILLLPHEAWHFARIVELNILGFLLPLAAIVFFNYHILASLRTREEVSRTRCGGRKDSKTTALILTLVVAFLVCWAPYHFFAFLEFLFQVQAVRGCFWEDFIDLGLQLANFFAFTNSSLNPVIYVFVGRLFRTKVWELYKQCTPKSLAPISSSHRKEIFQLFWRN
Put plainly: Isolated human umbilical vein (hUV) organ bath, antagonist potency pA2. It is filed as cell-based. Details: the hUV that contains BKB1 and BKB2 receptors; from tissue; host or cells: isolated human umbilical vein (hUV). As to conditions: human umbilical vein treated with HOE 140; mean ± SEM of 4–7 experiments; read-out: Antagonist potencies (pA2) BKB1-R hUV (converted). The protocol: Selected antagonists were tested for activities in three isolated organs: (1) the rabbit aorta (rbA), (2) the human umbilical vein (hUV) and (3) the rabbit jugular vein (rbJV).
All details regarding the procurements of human umbilical cords and rabbit vessels as well as, the procedures for preparing the isolated organs and the experimental protocols are described in these respective publications: rbA (Rioux et al. 1973, Can J Physiol Pharmacol 51, 114–121); hUV (Gobeil et al. 1996, Br J Pharmacol 118, 289–294), and rbJV (Gaudreau et al. 1981, Can J Physiol Pharmacol 59, 371–379).
The rabbit jugular vein (a pure BKB2 receptor system) was used to exclude any action of the new compounds on the BKB2 receptor and thus establish their selectivity. All tissues were treated with captopril (1 μM) to prevent the degradation of the peptidic agonists.
Repeated applications of a single and double concentration of BK (on rbJV,) or of desArg^9BK (rbA and hUV) were made in the absence and in presence of the various peptides to evaluate their apparent affinities as antagonists, in terms of pA2 (-log10 of the molar concentration of antagonist that reduces the effect of a double concentration of agonist to that of a single one) (Schild 1947, Br J Pharmacol 2, 189–206).

Another assay relates to STZ diabetic mice. The experiment in a line: Tail flick test, type-1 diabetic hyperalgesia. As to conditions: STZ diabetic mice, i.p., at time of maximal inhibition (10 min). The assay is classed as in vivo. The protocol:
Male CD-1 mice weighting between 25–30 g (Charles River Breeding Laboratory, St-Constant, QC, Canada) were used. The mice were housed four by cage with free access to food and water. They were maintained under conditions of standard lighting, (alternating 12-h light/dark cycle), temperature (22±0.5° C.) and humidity (60±10%) with food and water available at libitum. Animals were used only once in a given experiment. Experiments were conducted between 10:00 and 18:00 h.
Streptozotocin (Pharmacia & Upjohn Incorporation, Mississauga, ON, Canada) was dissolved in saline at a pH of 4.5 and administered to mice i.p. The BKB1 agonist desArg^9BK and compound c were dissolved in saline and administered to mice i.p.
Insulin-dependent diabetes mellitus (IDDM) was induced in mice using STZ. Male CD-1 mice were given a single high i.p. dose of STZ (200 mg/kg) (McEvoy et al., 1984, J Clin Invest 74, 715–722). […] Blood glucose levels were determined with an automatic analyzer (Glucometer Elite XL, Bayer Incorporation, Toronto, Ontario, Canada) using glucose oxidase/potassium ferricyanide reagent strips. […]
The tail flick test of D'Amour and Smith (D'Amour and Smith, 1941, J Pharmacol Exp Ther 72, 74–79) modified for mice was used. […] The radiant light is focussed on a blackened spot in the mid region of the animal's tail (2–3 cm from the tip of the tail) and the latency between the application of the stimulation light and the flicking of the animal's tail is recorded. When the animal flicks its tail, its exposes a photocell in the apparatus immediately below the tail and the instrument is automatically stopped and the time is recorded. […]
The effect of the selected drugs on nociception was determined by converting the hot plate, the plantar stimulation, the tail immersion or the tail flick responses from latencies into MPE (Maximum Percent Effect) according to the following equation (Bhargava and Zhao, 1996, Neuropeptides, 30, 219–223): […]

Turning to `CC[C@H](C)[C@H](NC(=O)[C@@H](Cc1ccc2ccccc2c1)NC(=O)[C@H](CO)NC(=O)[C@](C)(Cc1ccccc1)NC(=O)CNC(=O)[C@@H]1CCCN1C(=O)[C@@H]1C[C@@H]2CCCC[C@@H]2N1C(=O)[C@H](CCCNC(=N)N)NC(=O)[C@H](CCCCN)NC(C)=O)C(=O)O` [Ac-Lys[Oic^2,(α-Me)Phe^5,D-βNal^7,Ile^8]desArg^9BK] (Ac-KR[Oic]PG[αMeF]S[d2Nal]I-OH), the Kb on BKB1 receptor is 3.72 nM.
On to `CC[C@H](C)[C@H](NC(=O)[C@@H](Cc1ccc2ccccc2c1)NC(=O)[C@H](CO)NC(=O)[C@](C)(Cc1ccccc1)NC(=O)CNC(=O)[C@@H]1CCCN1C(=O)[C@@H]1C[C@@H]2CCCC[C@@H]2N1C(=O)[C@H](CCCNC(=N)N)NC(=O)[C@H](CCCN)NC(C)=O)C(=O)O` [compound c, Ac-Orn[Oic^2,(α-Me)Phe^5,D-βNal^7,Ile^8]desArg^9BK] (Ac-[Orn]R[Oic]PG[αMeF]S[d2Nal]I-OH), for which the Kb at BKB1 receptor was 3.47 nM. The same compound had an ID50 in the assay on STZ diabetic mice of 0.072 ± 0.002 mg/kg.
